{"source": "paper PMC10066365", "about": "“Nemacol is a small molecule inhibitor of C. elegans vesicular acetylcholine transporter with anthelmintic potential” (Nature Communications, 2023)", "key": {"[1]": {"molecular_target": "T1, rat VAChT (Rattus norvegicus, UniProt Q62666)", "T1 construct": "expressed in transfected cells; host or cells: rat PC12 (PC12 A123.7) cells, stably transfected; shared by Dr. Ali Roghani (Texas Tech University)", "T1 sequence (Q62666 1-530)": "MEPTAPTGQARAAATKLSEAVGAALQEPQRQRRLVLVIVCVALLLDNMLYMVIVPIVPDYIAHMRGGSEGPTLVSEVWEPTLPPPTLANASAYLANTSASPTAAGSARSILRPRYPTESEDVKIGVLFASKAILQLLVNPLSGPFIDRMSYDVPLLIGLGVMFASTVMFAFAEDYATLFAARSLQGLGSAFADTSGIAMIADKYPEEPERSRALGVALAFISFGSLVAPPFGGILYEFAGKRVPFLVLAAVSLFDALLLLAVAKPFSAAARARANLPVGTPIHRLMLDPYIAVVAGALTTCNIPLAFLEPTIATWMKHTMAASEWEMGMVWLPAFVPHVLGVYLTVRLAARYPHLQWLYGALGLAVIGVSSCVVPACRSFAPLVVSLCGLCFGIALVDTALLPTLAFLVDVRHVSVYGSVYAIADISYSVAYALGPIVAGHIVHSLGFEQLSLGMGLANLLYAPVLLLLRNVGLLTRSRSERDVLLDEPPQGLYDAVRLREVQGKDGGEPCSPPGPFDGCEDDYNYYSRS", "experiment": "[3H]Vesamicol competitive radioligand binding, PC12 cells expressing ratVAChT", "conditions": "ratVAChT Ki, [3H]Vesamicol displacement, mean"}, "[2]": {"test_system": "C. elegans unc-17 mutants", "conditions": "60 min, average of 3 biological repeats", "procedure": "Significance was calculated using Fisher’s method (one-sided comparisons; see 'Methods'). […] Worms were incubated on the plates for 60 min.\nLocomotor phenotype analyses were done in 24-well plates with 1 mL of MYOB substrate (27.5 g Trizma HCl, 12 g Trizma Base, 230 g bacto tryptone, 10 g NaCl, 0.4 g cholesterol (95%)) seeded with 25 µL of OP50 Escherichia coli on each well. Each compound was added to the MYOB substrate before pouring to achieve the desired final concentrations of 30 µM or 60 µM after diffusion through the media. Synchronized young adult worms are transferred into each well using a platinum wire pick. A Leica MZ75 stereomicroscope was used to visualize the movement of worms on the solid substrate. The specific dominant locomotor phenotype (i.e. ‘Punc’, ‘paralyzed’, ‘coiler’ or ‘wild-type locomotion’) was scored after the touch on the head with a platinum wire over a ~3–5 s of observation. […] Coiled animals were not scored as paralyzed despite sometimes not responding to light touch."}, "[3]": {"test_system": "C. elegans", "experiment": "Suppression of trichlorfon (AChE inhibitor) paralysis, double dose-response, scored after 80 min", "format": "in vivo, Caenorhabditis elegans", "conditions": "wild-type, bio rep 1-3"}, "[4]": {"conditions": "unc-17 (e245), 15 µM, adult worms"}, "[5]": {"conditions": "unc-17 (e245), 30 µM, adult worms"}, "[6]": {"conditions": "unc-17 (e245), 60 µM, adult worms"}, "[7]": {"conditions": "unc-17 (e245), 120 µM, adult worms"}, "[8]": {"conditions": "unc-17 (e245), 240 µM, adult worms"}}, "note": "“And” between values parts separate entries of the source, which are not always exact repeats. Equal values may be shown once. Read-outs that look alike come from different tables or passages of the source.", "data": [{"smiles": "O[C@@H]1CCCC[C@H]1N1CCC(c2ccccc2)CC1", "note": "(racemic) [vesamicol, reference compound]", "values": [{"measurement": "Ki", "setting": "[1]", "value": 21, "unit": "nM"}, {"measurement": "Fraction Coiled", "setting": "[2]; [4]", "value": 0.65}, {"measurement": "Fraction Jerky-Unc", "setting": "[2]; [4]", "value": 0.35}, {"measurement": "Fraction No Phenotype", "setting": "[2]; [4]", "value": 0.00}, {"measurement": "Fraction Parayzed", "setting": "[2]; [4]", "value": 0.00}, {"measurement": "Fraction Coiled", "setting": "[2]; [5]", "value": 0.74}, {"measurement": "Fraction Jerky-Unc", "setting": "[2]; [5]", "value": 0.24}, {"measurement": "Fraction No Phenotype", "setting": "[2]; [5]", "value": 0.00}, {"measurement": "Fraction Parayzed", "setting": "[2]; [5]", "value": 0.0185}, {"measurement": "Fraction Coiled", "setting": "[2]; [6]", "value": 0.70}, {"measurement": "Fraction Jerky-Unc", "setting": "[2]; [6]", "value": 0.24}, {"measurement": "Fraction No Phenotype", "setting": "[2]; [6]", "value": 0.00}, {"measurement": "Fraction Parayzed", "setting": "[2]; [6]", "value": 0.0556}, {"measurement": "Fraction Coiled", "setting": "[2]; [7]", "value": 0.74}, {"measurement": "Fraction Jerky-Unc", "setting": "[2]; [7]", "value": 0.14}, {"measurement": "Fraction No Phenotype", "setting": "[2]; [7]", "value": 0.00}, {"measurement": "Fraction Parayzed", "setting": "[2]; [7]", "value": 0.12}, {"measurement": "Fraction Coiled", "setting": "[2]; [8]", "value": 0.72}, {"measurement": "Fraction Jerky-Unc", "setting": "[2]; [8]", "value": 0.15}, {"measurement": "Fraction No Phenotype", "setting": "[2]; [8]", "value": 0.00}, {"measurement": "Fraction Parayzed", "setting": "[2]; [8]", "value": 0.13}, {"measurement": "Fraction Coiled", "setting": "[2]; unc-17 (md414), 15 µM", "value": 0.00}, {"measurement": "Fraction Jerky-Unc", "setting": "[2]; unc-17 (md414), 15 µM", "value": 0.037}, {"measurement": "Fraction No Phenotype", "setting": "[2]; unc-17 (md414), 15 µM", "value": 0.96}, {"measurement": "Fraction Parayzed", "setting": "[2]; unc-17 (md414), 15 µM", "value": 0.00}, {"measurement": "Fraction Coiled", "setting": "[2]; unc-17 (md414), 30 µM", "value": 0.00}, {"measurement": "Fraction Jerky-Unc", "setting": "[2]; unc-17 (md414), 30 µM", "value": 0.0741}, {"measurement": "Fraction No Phenotype", "setting": "[2]; unc-17 (md414), 30 µM", "value": 0.93}, {"measurement": "Fraction Parayzed", "setting": "[2]; unc-17 (md414), 30 µM", "value": 0.00}, {"measurement": "Fraction Coiled", "setting": "[2]; unc-17 (md414), 60 µM", "value": 0.00}, {"measurement": "Fraction Jerky-Unc", "setting": "[2]; unc-17 (md414), 60 µM", "value": 0.24}, {"measurement": "Fraction No Phenotype", "setting": "[2]; unc-17 (md414), 60 µM", "value": 0.76}, {"measurement": "Fraction Parayzed", "setting": "[2]; unc-17 (md414), 60 µM", "value": 0.00}, {"measurement": "Fraction Coiled", "setting": "[2]; unc-17 (md414), 120 µM", "value": 0.00}, {"measurement": "Fraction Jerky-Unc", "setting": "[2]; unc-17 (md414), 120 µM", "value": 0.43}, {"measurement": "Fraction No Phenotype", "setting": "[2]; unc-17 (md414), 120 µM", "value": 0.57}, {"measurement": "Fraction Parayzed", "setting": "[2]; unc-17 (md414), 120 µM", "value": 0.00}, {"measurement": "Fraction Coiled", "setting": "[2]; unc-17 (md414), 240 µM", "value": 0.037}, {"measurement": "Fraction Jerky-Unc", "setting": "[2]; unc-17 (md414), 240 µM", "value": 0.61}, {"measurement": "Fraction No Phenotype", "setting": "[2]; unc-17 (md414), 240 µM", "value": 0.35}, {"measurement": "Fraction Parayzed", "setting": "[2]; unc-17 (md414), 240 µM", "value": 0.00}, {"measurement": "% para (percentage of animals able to adopt a clear sinusoidal wave pattern upon touch on the nose)", "setting": "[3]; vesamicol 31.75 uM + trichlorfon 0 uM", "value": "96.4286% and 100%"}, {"measurement": "% para (percentage of animals able to adopt a clear sinusoidal wave pattern upon touch on the nose)", "setting": "[3]; vesamicol 31.75 uM + trichlorfon 25 uM", "value": "92.8571% and 96.4286% and 100%"}, {"measurement": "% para (percentage of animals able to adopt a clear sinusoidal wave pattern upon touch on the nose)", "setting": "[3]; vesamicol 31.75 uM + trichlorfon 50 uM", "value": "82.1429% and 71.4286% and 96.4286%"}, {"measurement": "% para (percentage of animals able to adopt a clear sinusoidal wave pattern upon touch on the nose)", "setting": "[3]; vesamicol 31.75 uM + trichlorfon 100 uM", "value": "64.2857% and 53.5714% and 42.8571%"}, {"measurement": "% para (percentage of animals able to adopt a clear sinusoidal wave pattern upon touch on the nose)", "setting": "[3]; vesamicol 31.75 uM + trichlorfon 400 uM", "value": 0, "unit": "%"}, {"measurement": "% para (percentage of animals able to adopt a clear sinusoidal wave pattern upon touch on the nose)", "setting": "[3]; vesamicol 31.75 uM + trichlorfon 800 uM", "value": 0, "unit": "%"}, {"measurement": "% para (percentage of animals able to adopt a clear sinusoidal wave pattern upon touch on the nose)", "setting": "[3]; vesamicol 62.5 uM + trichlorfon 0 uM", "value": 100, "unit": "%"}, {"measurement": "% para (percentage of animals able to adopt a clear sinusoidal wave pattern upon touch on the nose)", "setting": "[3]; vesamicol 62.5 uM + trichlorfon 25 uM", "value": "92.8571% and 100%"}, {"measurement": "% para (percentage of animals able to adopt a clear sinusoidal wave pattern upon touch on the nose)", "setting": "[3]; vesamicol 62.5 uM + trichlorfon 50 uM", "value": "89.2857% and 85.7143% and 96.4286%"}, {"measurement": "% para (percentage of animals able to adopt a clear sinusoidal wave pattern upon touch on the nose)", "setting": "[3]; vesamicol 62.5 uM + trichlorfon 100 uM", "value": "67.8571% and 64.2857% and 53.5714%"}, {"measurement": "% para (percentage of animals able to adopt a clear sinusoidal wave pattern upon touch on the nose)", "setting": "[3]; vesamicol 62.5 uM + trichlorfon 400 uM", "value": "0% and 3.571%"}, {"measurement": "% para (percentage of animals able to adopt a clear sinusoidal wave pattern upon touch on the nose)", "setting": "[3]; vesamicol 62.5 uM + trichlorfon 800 uM", "value": 0, "unit": "%"}, {"measurement": "% para (percentage of animals able to adopt a clear sinusoidal wave pattern upon touch on the nose)", "setting": "[3]; vesamicol 125 uM + trichlorfon 0 uM", "value": 100, "unit": "%"}, {"measurement": "% para (percentage of animals able to adopt a clear sinusoidal wave pattern upon touch on the nose)", "setting": "[3]; vesamicol 125 uM + trichlorfon 25 uM", "value": "96.4286% and 100%"}, {"measurement": "% para (percentage of animals able to adopt a clear sinusoidal wave pattern upon touch on the nose)", "setting": "[3]; vesamicol 125 uM + trichlorfon 50 uM", "value": "96.4286% and 78.5714% and 92.8571%"}, {"measurement": "% para (percentage of animals able to adopt a clear sinusoidal wave pattern upon touch on the nose)", "setting": "[3]; vesamicol 125 uM + trichlorfon 100 uM", "value": "85.7143% and 67.8571% and 60.7143%"}, {"measurement": "% para (percentage of animals able to adopt a clear sinusoidal wave pattern upon touch on the nose)", "setting": "[3]; vesamicol 125 uM + trichlorfon 800 uM", "value": 0, "unit": "%"}, {"measurement": "% para (percentage of animals able to adopt a clear sinusoidal wave pattern upon touch on the nose)", "setting": "[3]; vesamicol 250 uM + trichlorfon 0 uM", "value": "96.4286% and 100%"}, {"measurement": "% para (percentage of animals able to adopt a clear sinusoidal wave pattern upon touch on the nose)", "setting": "[3]; vesamicol 250 uM + trichlorfon 25 uM", "value": "100% and 96.4286%"}, {"measurement": "% para (percentage of animals able to adopt a clear sinusoidal wave pattern upon touch on the nose)", "setting": "[3]; vesamicol 250 uM + trichlorfon 50 uM", "value": "96.4286% and 89.2857% and 100%"}, {"measurement": "% para (percentage of animals able to adopt a clear sinusoidal wave pattern upon touch on the nose)", "setting": "[3]; vesamicol 250 uM + trichlorfon 100 uM", "value": "75% and 78.5714%"}, {"measurement": "% para (percentage of animals able to adopt a clear sinusoidal wave pattern upon touch on the nose)", "setting": "[3]; vesamicol 250 uM + trichlorfon 800 uM", "value": 0, "unit": "%"}, {"measurement": "% para (percentage of animals able to adopt a clear sinusoidal wave pattern upon touch on the nose)", "setting": "[3]; vesamicol 500 uM + trichlorfon 0 uM", "value": 100, "unit": "%"}, {"measurement": "% para (percentage of animals able to adopt a clear sinusoidal wave pattern upon touch on the nose)", "setting": "[3]; vesamicol 500 uM + trichlorfon 25 uM", "value": "100% and 92.8571% and 96.4286%"}, {"measurement": "% para (percentage of animals able to adopt a clear sinusoidal wave pattern upon touch on the nose)", "setting": "[3]; vesamicol 500 uM + trichlorfon 50 uM", "value": "89.2857% and 96.4286% and 78.5714%"}, {"measurement": "% para (percentage of animals able to adopt a clear sinusoidal wave pattern upon touch on the nose)", "setting": "[3]; vesamicol 500 uM + trichlorfon 100 uM", "value": "82.1429% and 85.7143%"}, {"measurement": "% para (percentage of animals able to adopt a clear sinusoidal wave pattern upon touch on the nose)", "setting": "[3]; vesamicol 500 uM + trichlorfon 200 uM", "value": "42.8571% and 50% and 71.4286%"}, {"measurement": "% para (percentage of animals able to adopt a clear sinusoidal wave pattern upon touch on the nose)", "setting": "[3]; vesamicol 500 uM + trichlorfon 800 uM", "value": 0, "unit": "%"}]}]}
